This is an account of results in PMC3017850, “Significance of Cuscutain, a cysteine protease from Cuscuta reflexa, in host-parasite interactions” (BMC Plant Biology, 2010).

Peptide text beside a SMILES is read from it. * marks the point of attachment. pNA = O=[N+]([O-])c1ccc(N*)cc1; Cbz = O=C(OCc1ccccc1)*

This test concerns cuscutain. The experiment in a line: colorimetric release of para-nitroaniline at […] nm; Hanes-Woolf plot. The format is biochemical, Cuscuta reflexa. The settings on record: pH 7.5; 30 °C (50 mM Tris, 300 mM NaCl) or 37 °C (0.1 M Na-citrate, 20% ethanol), both printed.

Usually Km stands for the concentration of substrate that gives half-maximal velocity. As to `N=C(N)NCCC[C@H](NC(=O)[C@H](Cc1ccccc1)NC(=O)OCc1ccccc1)C(=O)Nc1ccc([N+](=O)[O-])cc1` [Cbz-Phe-Arg-pNA] (Cbz-Phe-Arg-pNA), the Km worked out at 393 ± 20 µM.
